Test results published in PubChem BioAssay (NCI).
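GI50 = concentration required for 50% inhibition of growth. TGI marks complete inhibition of growth.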

Columns and labels:
Assay in all cases: NCI tumour cell line growth inhibition, 384-well format
786-0 renal = test system: 786-0 renal
A498 renal = test system: A498 renal
ACHN renal = test system: ACHN renal
BT-549 breast = test system: BT-549 breast
CAKI-1 renal = test system: CAKI-1 renal
DU-145 prostate = test system: DU-145 prostate
EKVX NSCLC = test system: EKVX NSCLC
HCC-2998 colon = test system: HCC-2998 colon
HCT-116 colon = test system: HCT-116 colon
HCT-15 colon = test system: HCT-15 colon
HL-60(TB) leukemia = test system: HL-60(TB) leukemia
HOP-62 NSCLC = test system: HOP-62 NSCLC
HOP-92 NSCLC = test system: HOP-92 NSCLC
HS 578T breast = test system: HS 578T breast
HT29 colon = test system: HT29 colon
IGROV1 ovarian = test system: IGROV1 ovarian
K-562 leukemia = test system: K-562 leukemia
KM12 colon = test system: KM12 colon
LOX IMVI melanoma = test system: LOX IMVI melanoma
M14 melanoma = test system: M14 melanoma
MALME-3M melanoma = test system: MALME-3M melanoma
MCF7 breast = test system: MCF7 breast
MDA-MB-231 breast = test system: MDA-MB-231 breast
MDA-MB-435 melanoma = test system: MDA-MB-435 melanoma
MDA-MB-468 breast = test system: MDA-MB-468 breast
MOLT-4 leukemia = test system: MOLT-4 leukemia
NCI-H226 lung = test system: NCI-H226 lung
NCI-H23 lung = test system: NCI-H23 lung
NCI-H322M lung = test system: NCI-H322M lung
NCI-H460 NSCLC = test system: NCI-H460 NSCLC
NCI-H522 lung = test system: NCI-H522 lung
NCI/ADR-RES ovarian = test system: NCI/ADR-RES ovarian
OVCAR-4 ovarian = test system: OVCAR-4 ovarian
OVCAR-5 ovarian = test system: OVCAR-5 ovarian
OVCAR-8 ovarian = test system: OVCAR-8 ovarian
PC-3 prostate = test system: PC-3 prostate
RPMI-8226 leukemia = test system: RPMI-8226 leukemia
RXF 393 renal = test system: RXF 393 renal
SF-268 CNS = test system: SF-268 CNS
SF-295 CNS = test system: SF-295 CNS
SF-539 CNS = test system: SF-539 CNS
SK-MEL-28 melanoma = test system: SK-MEL-28 melanoma
SK-MEL-5 melanoma = test system: SK-MEL-5 melanoma
SK-OV-3 ovarian = test system: SK-OV-3 ovarian
SN12C renal = test system: SN12C renal
SNB-19 CNS = test system: SNB-19 CNS
SNB-75 CNS = test system: SNB-75 CNS
SW-620 colon = test system: SW-620 colon
T-47D breast = test system: T-47D breast
TK-10 renal = test system: TK-10 renal
U251 glioblastoma = test system: U251 glioblastoma
UACC-257 melanoma = test system: UACC-257 melanoma
UACC-62 melanoma = test system: UACC-62 melanoma
UO-31 renal = test system: UO-31 renal

## CCn1cc(-c2ccnc3[nH]c(-c4cccc(CN(C)C)c4)cc23)c(-c2ccc(NC(=O)N(C)C)cc2)n1
786-0 renal
  GI50: 1450 nM
  TGI: 5230 nM
A498 renal
  GI50: 1180 nM
  TGI: 9520 nM
ACHN renal
  GI50: 2230 nM
  TGI: 10700 nM
BT-549 breast
  GI50: 293 nM
  TGI: 1770 nM
CAKI-1 renal
  GI50: 246 nM
  TGI: 1940 nM
DU-145 prostate
  GI50: 2710 nM
  TGI: 14600 nM
EKVX NSCLC
  GI50: 1110 nM
  TGI: 4860 nM
HCC-2998 colon
  GI50: 1690 nM
  TGI: 4200 nM
HCT-116 colon
  GI50: 158 nM
  TGI: 1940 nM
HCT-15 colon
  GI50: 1940 nM
  TGI: 9960 nM
HL-60(TB) leukemia
  GI50: < 10 nM
  TGI: 1370 nM
HOP-62 NSCLC
  GI50: 516 nM
  TGI: 7570 nM
HOP-92 NSCLC
  GI50: 449 nM
  TGI: 2720 nM
HS 578T breast
  GI50: 1250 nM
  TGI: 3170 nM
HT29 colon
  GI50: 1000 nM
  TGI: 2310 nM
IGROV1 ovarian
  GI50: 1530 nM
  TGI: 10400 nM
K-562 leukemia
  GI50: 1090 nM
  TGI: 2420 nM
KM12 colon
  GI50: 543 nM
  TGI: 2980 nM
LOX IMVI melanoma
  GI50: 422 nM
  TGI: 1920 nM
M14 melanoma
  GI50: 1270 nM
  TGI: 3940 nM
MALME-3M melanoma
  GI50: 1510 nM
  TGI: 3340 nM
MCF7 breast
  GI50: 843 nM
  TGI: 7150 nM
MDA-MB-231 breast
  GI50: 1320 nM
  TGI: 7090 nM
MDA-MB-435 melanoma
  GI50: 1680 nM
  TGI: 5340 nM
MDA-MB-468 breast
  GI50: < 10 nM
MOLT-4 leukemia
  GI50: < 10 nM
NCI-H226 lung
  GI50: 186 nM
  TGI: 1730 nM
NCI-H23 lung
  GI50: 403 nM
  TGI: 2290 nM
NCI-H322M lung
  GI50: 3810 nM
  TGI: 15600 nM
NCI-H460 NSCLC
  GI50: < 10 nM
  TGI: 1340 nM
NCI-H522 lung
  GI50: 115 nM
  TGI: 1540 nM
NCI/ADR-RES ovarian
  GI50: 17600 nM
  TGI: 42400 nM
OVCAR-4 ovarian
  GI50: 2260 nM
  TGI: 13900 nM
OVCAR-5 ovarian
  GI50: 1680 nM
  TGI: 4910 nM
OVCAR-8 ovarian
  GI50: 1620 nM
  TGI: 7510 nM
PC-3 prostate
  GI50: 1680 nM
  TGI: 7380 nM
RPMI-8226 leukemia
  GI50: < 10 nM
  TGI: 1430 nM
RXF 393 renal
  GI50: 45.4 nM
  TGI: 2740 nM
SF-268 CNS
  GI50: < 10 nM
  TGI: 192 nM
SF-295 CNS
  GI50: 1910 nM
  TGI: 10000 nM
SF-539 CNS
  GI50: 327 nM
  TGI: 2040 nM
SK-MEL-28 melanoma
  GI50: 1700 nM
  TGI: 4760 nM
SK-MEL-5 melanoma
  GI50: 1340 nM
  TGI: 2890 nM
SK-OV-3 ovarian
  GI50: 1010 nM
  TGI: 3410 nM
SN12C renal
  GI50: 344 nM
  TGI: 3800 nM
SNB-19 CNS
  GI50: 2410 nM
  TGI: 14200 nM
SNB-75 CNS
  GI50: 483 nM
  TGI: 2220 nM
SW-620 colon
  GI50: 750 nM
  TGI: 2350 nM
T-47D breast
  GI50: 1420 nM
  TGI: 9450 nM
TK-10 renal
  GI50: 2610 nM
  TGI: 11600 nM
U251 glioblastoma
  GI50: 1350 nM
  TGI: 2830 nM
UACC-257 melanoma
  GI50: 1360 nM
  TGI: 2710 nM
UACC-62 melanoma
  GI50: 755 nM
  TGI: 4340 nM
UO-31 renal
  GI50: 2670 nM
  TGI: 12000 nM
